Results published in ChEMBL document CHEMBL1158446, “Antimitotic activity of lobaric acid and a new benzofuran, sakisacaulon A from Stereocaulon sasakii” (Bioorg Med Chem Lett, 2009).
Activity calls are given as the source filed them. The calls are words filed in the database; no cut-off is given here.

Assay: Inhibition of tubulin polymerization

## CCCCCc1cc(O)cc(O)c1Oc1cc(OC)cc2c1C(=O)OC2(O)CCCC (stereo not drawn)
  inhibition: inactive

## CCCCCc1c(C)c(O)cc(O)c1Oc1cc(OC)cc2c1C(=O)OC2CCCC (stereo not drawn)
  inhibition: inactive

## CCCCCc1c2c(cc(O)c1C(=O)O)OC(=O)c1c(cc(OC)cc1C(=O)CCCC)O2 [LOBARIC ACID]
  IC50: 100 µM
